Results published in publication PMC8073686, “Characterization of Subtype Selective Cannabinoid CB2 Receptor Agonists as Potential Anti-Inflammatory Agents” (Pharmaceuticals, 2021).

Test system: TNF-α mRNA in Jurkat cells
Assay: PHA/PMA-induced TNF-α mRNA in Jurkat cells (RT-PCR)
Type: cell-based, human
Settings: 10 μM
Protocol: Activation of CB2 is known to have anti-inflammatory effects. There are some studies reporting that CB2 agonists decrease cytokine production in immune cells. We also reported that the cannabinoid receptor agonist CP55,940 and ABK5 inhibit cytokine production in the human T cell lines Jurkat and MOLT-4 [24]. Since ABK5-1 and 5-2 were confirmed to be CB2-subtype selective agonists, we were interested to determine whether these compounds also have anti-inflammatory effects. Note, although ABK5-6 had marginally better binding affinity to CB2, it bound to CB1 […] (i.e., micromolar range). Therefore ABK5-6 was not selected for further evaluations. We first tested the change of IL-2 and TNF-α mRNA levels in Jurkat cells. […] To test if these mRNA changes are reflected in the protein levels of cytokines, the IL-2 and TNF-α concentration in the cell culture medium were measured by ELISA. […] Unlike ABK5-1, at 3 h of treatment, the lowest concentration of ABK5-2 used caused the IL-2 mRNA decrease. […] On the other hand, TNF-α mRNA decreased by 45% at 10 μM ABK5-2 after 3 h of treatment (Figure 4E, black columns). […] These mRNA level changes were similar to that of ABK5-1, except ABK5-2 caused a stronger inhibitory effect on expression of TNF-α mRNA. […] Consistent with the mRNA levels, the inhibitory effect of ABK5-2 on TNF-α production was stronger than that of ABK5-1.
Figure 4 Effect of ABK5-1 and ABK5-2 on phytohemagglutinin (PHA)/phorbol 12-myristate 13-acetate (PMA)-induced cytokine production in T cells. Jurkat cells were pretreated with DMSO (<0.1%; indicated as 0 μM) or various concentrations of ABK5-1 (A–D) or ABK5-2 (E–H) and stimulated with PHA and PMA. IL-2 and TNF-α mRNA levels were determined by real-time PCR (RT-PCR) after ABK5-1 treatment and (A) 3 h and (B) 24 h of PHA/PMA (phytohemagglutinin/phorbol 12-myristate 13-acetate) stimulation. Protein levels of (C) IL-2 and (D) TNF-α were also examined after 24 h of stimulation. IL-2 and TNF-α mRNA were also examined after ABK5-2 treatment and (E) 3 h and (F) 24 h of stimulation, and protein levels of (G) IL-2 and (H) TNF-α were measured after 24 h stimulation. […]
Jurkat cells were lysed and total RNA was extracted using TRIzol Reagent (Life Technologies, Carlsbad, CA, USA) followed by reverse transcription by a High-Capacity cDNA Reverse Transcription kit (Life Technologies, Carlsbad, CA, USA) according to the manufacturer’s instructions. Quantitative real-time PCR was performed using an Applied Biosystems 7500 Fast Real-Time PCR system in a 10 μL reaction volume containing 2 μL diluted cDNA and 0.5 μM each of forward and reverse primers, and PowerUp SYBR Green Master Mix (Life Technologies, Carlsbad, CA, USA). […]

Structure (SMILES): CCOC(=O)c1ccccc1NC(=O)CN(c1c(C)cccc1C)S(=O)(=O)c1ccccc1 [ABK5-2]
- decrease of TNF-α mRNA (3 h PHA/PMA stimulation): 45%
- decrease of TNF-α mRNA (24 h): about 60%

Structure (SMILES): CCOC(=O)c1ccccc1NC(=O)CN(c1ccc(C)cc1C)S(=O)(=O)c1ccccc1 [ABK5-1]
- decrease of TNF-α mRNA (3 h PHA/PMA stimulation): 35%
- decrease of TNF-α mRNA (24 h): 50%
